Experimental data published in patent US8754115B2, “Fungicidal pyrazoles” (E I du Pont de Nemours and Company, priority 2010, dated 2014).
Marks after values point to notes of the source that are not given here.

Columns and labels:
Assay type in all cases: in vivo
[1] = system: Puccinia recondite f. sp. tritici; test: Test E2: preventive spray on wheat seedlings, visual disease rating (wheat leaf rust)
Text: (§1) General protocol for preparing test suspensions for Tests A-F: the test compounds were first dissolved in acetone in an amount equal to 3% of the final volume and then suspended at the desired concentration (in ppm) in acetone and purified water (50/50 mix by volume) containing 250 ppm of the surfactant Trem® 014 (polyhydric alcohol esters). The resulting test suspensions were then used in Tests A-F. Spraying a 200 ppm test suspension to the point of run-off on the test plants was the equivalent of a rate of 800 g/ha. Unless otherwise indicated, the rating values indicate a 200 ppm test suspension was used. (An asterisk “*” next to the rating value indicates a 40 ppm test suspension was used.)
The test suspension was sprayed to the point of run-off on wheat seedlings. The following day the seedlings were inoculated with a spore suspension of Puccinia recondite f. sp. tritici (the causal agent of wheat leaf rust) and incubated in a saturated atmosphere at 20° C. for 24 h, and then moved to a growth chamber at 20° C. for 7 days, after which time visual disease ratings were made.
(§2) Results for Tests A-F are given in Table A. In the Table, a rating of 100 indicates 100% disease control and a rating of 0 indicates no disease control (relative to the controls). A dash (-) indicates no test results. An asterisk “*” next to the rating value indicates a 40 ppm test suspension was used.

Botrytis cinerea = test: Test A: preventive spray on tomato seedlings, visual disease rating (tomato Botrytis)
Text: as §1
(§3) The test suspension was sprayed to the point of run-off on tomato seedlings. The following day the seedlings were inoculated with a spore suspension of Botrytis cinerea (the causal agent of tomato Botrytis) and incubated in saturated atmosphere at 20° C. for 48 h, and then moved to a growth chamber at 24° C. for 3 days, after which time visual disease ratings were made.
as §2

Septoria tritici = test: Test D: preventive spray on wheat seedlings, visual disease rating (wheat leaf blotch)
Text: as §1
as §3, with “wheat” for “tomato”, “Septoria tritici” for “Botrytis cinerea”, “wheat leaf blotch)” for “tomato Botrytis)”, “24°” for “20°”, “20°” for “24°”, “19” for “3”
as §2

[2] = system: Blumeria graminis f. sp. tritici; test: Test F: preventive spray on wheat seedlings, visual disease rating (wheat powdery mildew)
Text: as §1
The test suspension was sprayed to the point of run-off on wheat seedlings. The following day the seedlings were inoculated with a spore dust of Blumeria graminis f. sp. tritici, (also known as Erysiphe graminis f. sp. tritici, the causal agent of wheat powdery mildew) and incubated in a growth chamber at 20° C. for 8 days, after which time visual disease ratings were made.
as §2

[3] = no asterisk: standard test suspension, not 40 ppm
[4] = no asterisk: standard test suspension, not 40 ppm, 100 = 100% disease control, 0 = none
[5] = asterisk: 40 ppm test suspension

SMILES | Test E2 rating (% disease control) [1, 3] | Test A rating (% disease control) (Botrytis cinerea; [4]) | Test D rating (% disease control) (Septoria tritici; [3]) | Test F rating (% disease control) [2, 3] | Test E2 rating (% disease control) [1, 5] | Test A rating (% disease control) (Botrytis cinerea; [5]) | Test D rating (% disease control) (Septoria tritici; [5]) | Test F rating (% disease control) [2, 5]
Cn1nc(Cl)c(C(O)c2ccc(F)cc2F)c1-c1c(F)cccc1Cl (stereo not shown) [compound 133] | 100% | 100% | 100% | 99% | – | – | – | –
COc1nn(C)c(-c2c(F)cc(F)cc2F)c1C(O)c1c(F)cccc1Cl (stereo not shown) [compound 155] | – | – | – | – | 100* % | 99* % | 100* % | 99* %
Cc1nn(C)c(-c2c(F)cccc2F)c1C(SC#N)c1ccc(F)cc1Cl (stereo not shown) [Compound 111] | 100% | 100% | 100% | 100% | – | – | – | –
Cn1nc(Br)c(C(O)c2ccc(F)cc2Cl)c1-c1c(F)cccc1Cl (stereo not shown) [compound 148] | 100% | 100% | 100% | 99% | – | – | – | –
COc1nn(C)c(-c2c(F)cccc2F)c1C(O)c1c(F)ccc(F)c1F (stereo not shown) [compound 138] | – | – | – | – | 55* % | 66* % | 16* % | 93* %
Cn1nc(Br)c(C(O)c2ccc(F)cc2F)c1-c1c(F)cccc1Cl (stereo not shown) [compound 131] | 100% | 98% | 100% | 98% | – | – | – | –
Cn1nc(Cl)c(C(O)c2ccc(F)cc2Br)c1-c1c(F)cccc1Cl (stereo not shown) [compound 134] | 100% | 100% | 100% | 99% | – | – | – | –
Cc1nn(C)c(-c2c(F)cccc2Br)c1C(O)c1ccc(F)cc1Cl (stereo not shown) [compound 94] | 100% | 99% | 100% | 100% | – | – | – | –
Cc1nn(C)c(-c2c(F)cccc2Cl)c1C(SC#N)c1c(F)cc(F)cc1F (stereo not shown) [Compound 123] | – | – | – | – | 99* % | 87* % | 100* % | 90* %
Cn1nc(Br)c(C(O)c2ccc(F)cc2Cl)c1-c1ccc(F)cc1Cl (stereo not shown) [compound 125] | 100% | 82% | 100% | 87% | – | – | – | –
C=CCOC(c1ccc(F)cc1Cl)c1c(C)nn(C)c1-c1c(F)cccc1F (stereo not shown) [Compound 109] | – | – | – | – | 98* % | 0* % | 100* % | 97* %
Cc1nn(C)c(-c2c(F)cccc2F)c1C(SC#N)c1c(F)cc(F)cc1F (stereo not shown) [Compound 116] | – | – | – | – | 9* % | 0* % | 78* % | 0* %
Cc1cc(C)n(-c2c(C(O)c3ccc(F)cc3C)c(C)nn2C)n1 (stereo not shown) [compound 158] | 0% | 0% | 8% | 13% | – | – | – | –
Cn1nc(Br)c(C(O)c2ccc(F)cc2Br)c1-c1c(F)cccc1Cl (stereo not shown) [compound 132] | – | 0% | – | 100% | 99* % | – | 100* % | –
COCOC(c1ccc(F)cc1Cl)c1c(C)nn(C)c1-c1c(F)cccc1F (stereo not shown) [Compound 110] | – | – | – | – | 98* % | 0* % | 100* % | 99* %
Cc1nn(C)c(-c2c(F)cccc2Cl)c1C(SC#N)c1ccc(F)cc1Cl (stereo not shown) [Compound 121] | – | – | – | – | 100* % | 97* % | 100* % | 100* %
